# Data reported in ChEMBL document CHEMBL1149970, “Novel dithiocarbamate carbapenems1 with anti-MRSA activity” (Bioorg Med Chem Lett, 1997).
# Key:
# Staphylococcus aureus [1] = assay: In vitro antibacterial activity against staphylococcus aureus BB6294 organism (Methicillin-resistant strain); format: functional
# [2] = test system: Staphylococcus epidermidis; assay: In vitro antibacterial activity against Staphylococcus epidermidis MB5181a organism; format: functional
# Escherichia coli = assay: In vitro antibacterial activity against Escherichia coli NIHJ JC2 organism; format: functional
# Staphylococcus aureus [3] = assay: In vitro antibacterial activity against staphylococcus aureus CSa1009 (Methicillin-resistant strain and b beta-Lactamase producing strain); format: functional
# Enterococcus faecalis = assay: In vitro antibacterial activity against Enterococcus faecalis MB4996 organism; format: functional
# Staphylococcus aureus [4] = assay: In vitro antibacterial activity against staphylococcus aureus 209P NIHJ JC1 organism; format: functional
# Pseudomonas aeruginosa = assay: In vitro antibacterial activity against Pseudomonas aeruginosa MB5002 organism; format: functional
# [5] = biological target: T1, Dipeptidase 1 (Sus scrofa) (UniProt P22412); assay: Relative rate of hydrolysis of porcine renal dehydropeptidase-I (DHP-I) to imipenem; format: functional
# T1 sequence (whole entry): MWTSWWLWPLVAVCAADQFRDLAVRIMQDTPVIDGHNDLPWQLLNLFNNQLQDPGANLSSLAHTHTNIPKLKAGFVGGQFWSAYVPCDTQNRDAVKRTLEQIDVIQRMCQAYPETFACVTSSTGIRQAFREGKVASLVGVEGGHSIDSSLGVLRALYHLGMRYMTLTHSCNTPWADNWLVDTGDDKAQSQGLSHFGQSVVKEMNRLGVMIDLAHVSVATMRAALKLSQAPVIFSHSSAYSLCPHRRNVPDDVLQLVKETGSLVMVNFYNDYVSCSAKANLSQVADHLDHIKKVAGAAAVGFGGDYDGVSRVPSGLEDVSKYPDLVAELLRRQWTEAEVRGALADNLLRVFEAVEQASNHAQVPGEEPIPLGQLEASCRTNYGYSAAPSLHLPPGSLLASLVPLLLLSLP
# [6] = Compound was measured for binding rate for human serum at a carbapenem concentration of 10 ug/mL; format: ADME; conditions: read-out: Protein binding (converted)
# Staphylococcus aureus [7] = assay: Compound was tested in vivo for its anti-methicillin-resistant staphylococcus aureus(MRSA); format: functional
# [8] = PBP-2'' affinity was determined by the competition assay with [14C]benzylpenicillin using membrane isolated from MRSA BB6294 strain; format: functional, Staphylococcus aureus
# Mus musculus = species on record: Mus musculus; assay: Compound was measured for binding rate for mouse serum at a carbapenem concentration of 10 ug/mL; format: functional
# Rattus norvegicus [9] = assay: Epileptogenicity of compound was measured at 100 ug/rat head by the rat intraventricular assay; 0/5; format: functional, Cerebral ventricle
# [10] = biological target: T1, Dipeptidase 1 (Sus scrofa); assay: Compound was measured for DHP-I susceptibility; format: functional
# Staphylococcus aureus [11] = assay: Compound was tested in vitro for its anti-methicillin-resistant staphylococcus aureus(MRSA); 3.13-6.25; format: functional
# Rattus norvegicus [12] = assay: Epileptogenicity of compound was measured at 100 ug/rat head by the rat intraventricular assay; 3/5; format: functional
# Staphylococcus aureus [13] = assay: Compound was tested in vitro for its anti-methicillin-resistant staphylococcus aureus(MRSA); 3.13-12.5; format: functional
# Rattus norvegicus [14] = assay: Epileptogenicity of compound was measured at 100 ug/rat head by the rat intraventricular assay; 1/5; format: functional
# [15] = Staphylococcus epidermidis, read-out: MIC
Compound,MIC (Staphylococcus aureus [1]) [µg/mL],"MIC [2, 15] [µg/mL]",MIC (Escherichia coli) [µg/mL],MIC (Staphylococcus aureus [3]) [µg/mL],MIC (Enterococcus faecalis) [µg/mL],MIC (Staphylococcus aureus [4]) [µg/mL],MIC (Pseudomonas aeruginosa) [µg/mL],DHP-I susceptibility [5],fraction unbound at 10 ug/mL [6],ED50 (Staphylococcus aureus [7]) [mg/kg],IC50 [8] [µg/mL],PPB (Mus musculus) [%],Epileptogenicity (Rattus norvegicus [9]),DHP-I susceptibility [10],MIC (Staphylococcus aureus [11]) [µg/mL],Epileptogenicity (Rattus norvegicus [12]),MIC (Staphylococcus aureus [13]) [µg/mL],ED50 (Staphylococcus aureus [7]; Staphylococcus aureus) [mg/kg],MIC [2] [pug ml-1],Epileptogenicity (Rattus norvegicus [14])
CCN(CCO)C(=S)SC1=C(C(=O)O)N2C(=O)[C@H]([C@@H](C)O)[C@H]2[C@H]1C,6.25,3.13,6.25,6.25,6.25,0.025,> 25,2.38,–,–,–,–,–,–,–,–,–,–,–,–
C[C@@H](O)[C@H]1C(=O)N2C(C(=O)O)=C(SC(=S)N(C)CCO)[C@H](C)[C@H]12,3.13,6.25,0.78,6.25,6.25,0.025,> 25,1.36,0.53,4.8,3.8,58,0,1.33,4.36,–,–,–,–,–
C[C@@H](O)[C@H]1C(=O)N2C(C(=O)O)=C(SC(=S)N(C)Cc3ccccc3)[C@H](C)[C@H]12,1.56,3.13,12.5,1.56,1.56,0.012,> 25,1.94,–,–,–,–,–,–,–,–,–,–,–,–
C[C@@H](O)[C@H]1C(=O)N2C(C(=O)[O-])=C(SC(=S)N3CC[N+](C)(Cc4ccccc4)CC3)[C@H](C)[C@H]12,3.13,1.56,1.56,6.25,1.56,< 0.006,> 25,0.15,0.4,10,–,82,–,0.15,–,3,5.36,–,–,–
C[C@@H](O)[C@H]1C(=O)N2C(C(=O)[O-])=C(SC(=S)N3CC[N+](C)(C)CC3)[C@H](C)[C@H]12,3.13,3.13,0.1,12.5,1.56,0.012,> 25,0.11,–,–,–,–,–,–,–,–,–,–,–,–
CCN(C)C(=S)SC1=C(C(=O)O)N2C(=O)[C@H]([C@@H](C)O)[C@H]2[C@H]1C,3.13,3.13,6.25,3.13,6.25,0.025,> 25,2.26,–,–,–,–,–,–,–,–,–,–,–,–
C[C@@H](O)[C@H]1C(=O)N2C(C(=O)O)=C(SC(=O)N3CCCC3)[C@H](C)[C@H]12,25,25,–,25,–,0.05,–,0.65,–,–,–,–,–,–,–,–,–,–,–,–
CCN(CC)C(=S)SC1=C(C(=O)O)N2C(=O)[C@H]([C@@H](C)O)[C@H]2[C@H]1C,3.13,3.13,25,3.13,12.5,0.025,25,2.51,–,–,–,–,–,–,–,–,–,–,–,–
C[C@@H](O)[C@H]1C(=O)N2C(C(=O)O)=C(SC(=S)N(C)c3cccs3)[C@H](C)[C@H]12,1.56,0.78,12.5,3.13,3.13,< 0.006,> 25,2.05,–,–,–,–,–,–,–,–,–,–,–,–
CN[C@H](CC(C)C)C(=O)N[C@H]1C(=O)N[C@@H](CC(N)=O)C(=O)N[C@H]2C(=O)N[C@H]3C(=O)N[C@H](C(=O)N[C@H](C(=O)O)c4cc(O)cc(O)c4-c4cc3ccc4O)[C@H](O)c3ccc(c(Cl)c3)Oc3cc2cc(c3O[C@@H]2O[C@H](CO)[C@@H](O)[C@H](O)[C@H]2O[C@H]2C[C@](C)(N)[C@H](O)[C@H](C)O2)Oc2ccc(cc2Cl)[C@H]1O [VANCOMYCIN],–,–,> 25,–,–,0.39,> 25,–,–,–,–,–,–,–,–,–,–,5.56,–,–
CCCN(C)C(=S)SC1=C(C(=O)O)N2C(=O)[C@H]([C@@H](C)O)[C@H]2[C@H]1C,3.13,3.13,25,3.13,6.25,0.025,25,2.71,–,–,–,–,–,–,–,–,–,–,–,–
C[C@@H](O)[C@H]1C(=O)N2C(C(=O)O)=C(SC(=S)N3CCC(O)C3)[C@H](C)[C@H]12 (stereo partly specified),6.25,3.13,0.78,6.25,6.25,0.025,> 25,2.21,–,–,–,–,–,–,–,–,–,–,–,–
C[C@@H](O)[C@H]1C(=O)N2C(C(=O)O)=C(SC(=S)N3CC(O)C3)[C@H](C)[C@H]12,6.25,3.13,0.78,6.25,12.5,0.025,> 25,2.32,–,–,–,–,–,–,–,–,–,–,–,–
C[C@@H](O)[C@H]1C(=O)N2C(C(=O)O)=C(SC(=S)N3CCC3)[C@H](C)[C@H]12,3.13,6.25,3.13,6.25,6.25,0.025,> 25,3.03,–,–,–,–,–,–,–,–,–,–,–,–
C[C@@H](O)[C@H]1C(=O)N2C(C(=O)O)=C(SC(=S)N3CCN(C)CC3)[C@H](C)[C@H]12,3.13,3.13,1.56,6.25,6.25,0.025,> 25,1.53,–,–,–,–,–,–,–,–,–,–,–,–
C[C@@H](O)[C@H]1C(=O)N2C(C(=O)O)=C(SC(=S)N3CCCCC3)[C@H](C)[C@H]12,1.56,3.13,25,3.13,6.25,0.025,> 25,3.1,–,–,–,–,–,–,–,–,–,–,–,–
C=CCN(CCCO)C(=S)SC1=C(C(=O)O)N2C(=O)[C@H]([C@@H](C)O)[C@H]2[C@H]1C,3.13,–,12.5,3.13,6.25,0.025,> 25,1.39,–,–,–,–,–,–,–,–,–,–,3.13,–
C[C@@H](O)[C@H]1C(=O)N2C(C(=O)O)=C(SC(=S)N(C)c3ccccc3)[C@H](C)[C@H]12,1.56,1.56,> 25,3.13,6.25,0.05,> 25,2.29,–,–,–,–,–,–,–,–,–,–,–,–
C[C@@H](O)[C@H]1C(=O)N2C(C(=O)O)=C(SC(=S)N3CCCC3)[C@H](C)[C@H]12,3.13,3.13,6.25,6.25,12.5,0.012,> 25,3.18,0.06,6.24,5.6,95,–,3.18,4.04,–,–,–,–,1
C[C@@H](O)[C@H]1C(=O)N2C(C(=O)O)=C(SC(=S)N3CCCCCC3)[C@H](C)[C@H]12,1.56,1.56,> 25,1.56,6.25,0.012,> 25,3.09,–,–,–,–,–,–,–,–,–,–,–,–
C[C@@H](O)[C@H]1C(=O)N2C(C(=O)O)=C(SC(=S)N(C)C)[C@H](C)[C@H]12,3.13,6.25,6.25,6.25,12.5,0.012,25,2.12,0.12,5.91,9.6,69,0,2.12,4.59,–,–,–,–,–
C[C@@H](O)[C@H]1C(=O)N2C(C(=O)O)=C(SC(=S)N3CCC(O)CC3)[C@H](C)[C@H]12,6.25,6.25,3.13,6.25,6.25,0.025,> 25,2.23,–,–,–,–,–,–,–,–,–,–,–,–
C[C@@H](O)[C@H]1C(=O)N2C(C(=O)O)=C(SC(=S)N3CCCC3)C[C@H]12,6.25,12.5,–,25,–,0.025,–,11.7,–,–,–,–,–,–,–,–,–,–,–,–
C[C@@H](O)[C@H]1C(=O)N2C(C(=O)O)=C(SC(=S)N3CCCC(O)CC3)[C@H](C)[C@H]12 (stereo partly specified),3.13,3.13,12.5,3.13,3.13,0.012,> 25,2.88,0.15,2.88,1.9,92,0,2.88,3.55,–,–,–,–,–
